Test results from ChEMBL document CHEMBL1649449, “Antifungal activities of natural and synthetic iron chelators alone and in combination with azole and polyene antibiotics against Aspergillus fumigatus” (Antimicrob Agents Chemother, 2009).

Tested on: Aspergillus fumigatus
Assay: Antifungal activity against Aspergillus fumigatus B5233 conidia after 16 hrs by fluorescence-based microplate assay at pH 7.2
Assay type: functional, organism-based
Settings: B5233, 16 h

Compound | IC50 [µM]
Cc1cc(C2CCCCC2)n(O)c(=O)c1 [CICLOPIROX] | 4.22
Cc1c(O)c(=O)ccn1C [DEFERIPRONE] | 1.29
